These results are taken from patent US20040076683A1, “Stealth lipid nanocapsules, methods for the preparation thereof, and use thereof as a carrier for active principle(s)” (ETHYPHARM, priority 2002, published 2004).

A short description of the data set: Solubility of paclitaxel and docetaxel in triglycerides. In kind it is physicochemical. Particulars: dissolved at 75 °C, no recrystallization at room temperature. How it is done:
A solution of docetaxel or paclitaxel in triglycerides, which will constitute the inner core of the lipid nanocapsules, is prepared by dissolving the drug into the triglyceride at 75° C. The amount of drug is adjusted in order to obtain solutions that will not recrystallize upon cooling to room temperature.

The mark [1] stands for this setting: in Labrafac CC (C8 content 56.7%).
[2] abbreviates: in Miglyol 810 N (C8 content 70.4%).

In the case of `CC(=O)O[C@@]12CO[C@@H]1C[C@H](O)[C@@]1(C)C(=O)[C@H](O)C3=C(C)[C@@H](OC(=O)[C@H](O)[C@@H](NC(=O)OC(C)(C)C)c4ccccc4)C[C@@](O)([C@@H](OC(=O)c4ccccc4)[C@H]21)C3(C)C` [Docetaxel, docetaxel], the “Solubility (% w/w)” value reads like this: under setting [1], 2 % w/w; under setting [2], 3.9 % w/w; (in Tricaprylin (C8 >99%)) 7 % w/w.

Consider `CC(=O)O[C@H]1C(=O)[C@@]2(C)[C@H]([C@H](OC(=O)c3ccccc3)[C@]3(O)C[C@H](OC(=O)[C@H](O)[C@@H](NC(=O)c4ccccc4)c4ccccc4)C(C)=C1C3(C)C)[C@]1(OC(C)=O)CO[C@@H]1C[C@@H]2O` [Paclitaxel, paclitaxel], for which the “Solubility (% w/w)” value runs as follows: under setting [1], 1.6 % w/w; under setting [2], 2.7 % w/w; (in Tricaprylin (C8 >99%)) 6 % w/w.
